Source: patent US9302999B2, “Substituted triazoles as herbicides” (E. I. DU PONT DE NEMOURS AND COMPANY, priority 2012, dated 2016)
Where two headings read alike, the source gives them in different places.

Experiments:
Format in all cases: in vivo
[1] = test system: sedge, umbrella (small-flower umbrella sedge, Cyperus difformis); assay: Test C flooded paddy test: sedge, umbrella; conditions: Cyperus difformis, scale 0 to 100 (0 no effect, 100 complete control), read-out: Plant response rating, Sedge, Umbrella; for pest or weed control at 62 g/ha: 62 g ai/ha; for pest or weed control at 250 g/ha: 250 g ai/ha; for pest or weed control at 125 g/ha: 125 g ai/ha
In short: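 2-leaf stage plants; pots flooded 3 cm above soil; compound applied into paddy water, depth maintained. Greenhouse 13–15 d. Visual rating vs controls, 0–100 (0 = no effect, 100 = complete control); dash = no result.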

[2] = test system: bluegrass (annual bluegrass, Poa annua); assay: Test D pre-/postemergence: bluegrass
Description: (§1) Seeds of plant species selected from bluegrass (annual bluegrass, Poa annua), blackgrass (Alopecurus myosuroides), canarygrass (Phalaris minor), chickweed (common chickweed, Stellaria media), galium (catchweed bedstraw, Galium aparine), bromegrass, downy (downy bromegrass, Bromus tectorum), field poppy (Papaver rhoeas), field violet (Viola arvensis), foxtail, green (green foxtail, Setaria viridis), deadnettle (henbit deadnettle, Lamium amplexicaule), ryegrass, Italian (Italian ryegrass, Lolium multiflorum), kochia (Kochia scoparia), lambsquarters (Chenopodium album), oilseed rape (Brassica napus), pigweed (Amaranthus retroflexus), Russian thistle (Salsola iberica), chamomile (scentless chamomile, Matricaria inodora), speedwell (bird's-eye speedwell, Veronica persica), barley, spring (spring barley, Hordeum vulgare), wheat, spring (spring wheat, Triticum aestivum), buckwheat, wild (wild buckwheat, Polygonum convolvulus), mustard, wild (wild mustard, Sinapis arvensis), oat, wild (wild oat, Avena fatua), radish, wild (wild radish, Raphanus raphanistrum), windgrass (Apera spica-venti), barley, winter (winter barley, Hordeum vulgare), and wheat, winter (winter wheat, Triticum aestivum) were planted into a silt loam soil and treated preemergence with test chemicals formulated in a non-phytotoxic solvent mixture which included a surfactant. At the same time, these same crop and weed species were planted in pots containing the planting medium comprising spaghnum peat moss, vermiculite, wetting agent and starter nutrients and treated with postemergence applications of the test chemicals formulated in the same manner. Plants ranged in height from 2 to 18 cm (1- to 4-leaf stage).
(§2) Treated plants and controls were maintained in a controlled growth environment for 14 to 21 days after which time all species were compared to controls and visually evaluated. Plant response ratings, summarized in Table D, are based on a scale of 0 to 100 where 0 is no effect and 100 is complete control. A dash (-) response means no test result.

[3] = test system: blackgrass (Alopecurus myosuroides); assay: Test D pre-/postemergence: blackgrass
Description: as §1, §2

[4] = test system: ryegrass, Italian (Italian ryegrass, Lolium multiflorum); assay: Test D pre-/postemergence: ryegrass, Italian
Description: as §1, §2

[5] = test system: mustard, wild (wild mustard, Sinapis arvensis); assay: Test D pre-/postemergence: mustard, wild
Description: as §1, §2

[6] = Flood (flooded paddy test), visual rating after 13 to 15 days
[7] = Postemergence, 31 g ai/ha, scale 0 to 100 (0 no effect, 100 complete control)
[8] = Postemergence, 62 g ai/ha, scale 0 to 100 (0 no effect, 100 complete control)
[9] = Postemergence, 125 g ai/ha, scale 0 to 100, 0 no effect, 100 complete control
[10] = Postemergence, 250 g ai/ha, scale 0 to 100 (0 no effect, 100 complete control)
[11] = Preemergence, 31 g ai/ha, scale 0 to 100, 0 no effect, 100 complete control
[12] = Preemergence, 62 g ai/ha, scale 0 to 100
[13] = Preemergence, 125 g ai/ha, scale 0 to 100
[14] = Preemergence, 250 g ai/ha, scale 0 to 100
[15] = Postemergence, 16 g ai/ha, scale 0 to 100
[16] = Preemergence, 16 g ai/ha, scale 0 to 100, 0 no effect, 100 complete control

SMILES | pest or weed control at 62 g/ha [1, 6] [%] | pest or weed control at 250 g/ha [1, 6] [%] | Plant response rating: Bluegrass [2, 7] | Plant response rating: Bluegrass [2, 8] | Plant response rating: Bluegrass [2, 9] | Plant response rating: Bluegrass [2, 10] | Plant response rating, Bluegrass [2, 11] | Plant response rating, Bluegrass [2, 12] | Plant response rating, Bluegrass [2, 13] | Plant response rating: Blackgrass [3, 7] | Plant response rating: Blackgrass [3, 8] | Plant response rating: Blackgrass [3, 9] | Plant response rating: Blackgrass [3, 10] | Plant response rating, Blackgrass [3, 11] | Plant response rating: Ryegrass, Italian [4, 7] | Plant response rating: Ryegrass, Italian [4, 8] | Plant response rating: Ryegrass, Italian [4, 9] | Plant response rating: Mustard, Wild [5, 7] | Plant response rating: Mustard, Wild [5, 8] | Plant response rating: Mustard, Wild [5, 9] | further results
Cc1nn(-c2ccc(C(F)(F)F)cc2)nc1Oc1csc(C(F)(F)F)c1 [Compound 1, 4-methyl-2-[4-(trifluoromethyl)phenyl]-5-[[5-(trifluoromethyl)-3-thienyl]oxy]-2H-1,2,3-triazole] | 0 | 0 |  |  |  |  |  |  |  |  |  |  |  |  |  |  |  |  |  |  | 
FC(F)(F)COc1nn(-c2ccc(C(F)(F)F)cc2)nc1Cc1ccnc(C(F)(F)F)c1 [Compound 14, 4-[[5-(2,2,2-trifluoroethoxy)-2-[4-(trifluoromethyl)phenyl]-2H-1,2,3-triazol-4-yl]methyl]-2-(trifluoromethyl)pyridine] | 40 | 75 | 20 | 35 | 70 | 95 | 0 | 30 | 85 | 25 | 35 | 70 | 85 | 0 | 5 | 20 | 25 | 50 | 90 | 100 | Plant response rating, Bluegrass [2, 14]: 100; Plant response rating, Blackgrass [3, 12]: 0; Plant response rating, Blackgrass [3, 13]: 10; Plant response rating, Blackgrass [3, 14]: 60; Plant response rating: Ryegrass, Italian [4, 10]: 35; Plant response rating, Ryegrass, Italian [4, 11]: 0; Plant response rating, Ryegrass, Italian [4, 12]: 25; Plant response rating, Ryegrass, Italian [4, 13]: 25; Plant response rating, Ryegrass, Italian [4, 14]: 50; Plant response rating: Mustard, Wild [5, 10]: 100; Plant response rating, Mustard, Wild [5, 11]: 0; Plant response rating, Mustard, Wild [5, 12]: 50; Plant response rating, Mustard, Wild [5, 13]: 90; Plant response rating, Mustard, Wild [5, 14]: 95
COc1nn(-c2ccc(C(F)(F)F)cc2)nc1Cc1ccnc(C(F)(F)F)c1 [Compound 15, 4-[[5-methoxy-2-[4-(trifluoromethyl)phenyl]-2H-1,2,3-triazol-4-yl]methyl]-2-(trifluoromethyl)pyridine] | 75 | 80 | 10 | 25 | 50 | 95 | 0 | 5 | 80 | 15 | 30 | 50 | 85 | 0 | 5 | 5 | 10 | 70 | 100 | 100 | Plant response rating, Bluegrass [2, 15]: 0; Plant response rating, Bluegrass [2, 14]: 100; Plant response rating, Blackgrass [3, 15]: 15; Plant response rating, Blackgrass [3, 12]: 25; Plant response rating, Blackgrass [3, 13]: 80; Plant response rating, Blackgrass [3, 14]: 90; Plant response rating: Ryegrass, Italian [4, 10]: 20; Plant response rating, Ryegrass, Italian [4, 15]: 0; Plant response rating, Ryegrass, Italian [4, 11]: 0; Plant response rating, Ryegrass, Italian [4, 12]: 5; Plant response rating, Ryegrass, Italian [4, 13]: 25; Plant response rating, Ryegrass, Italian [4, 14]: 70; Plant response rating: Mustard, Wild [5, 10]: 100; Plant response rating, Mustard, Wild [5, 15]: 0; Plant response rating, Mustard, Wild [5, 11]: 100; Plant response rating, Mustard, Wild [5, 12]: 100; Plant response rating, Mustard, Wild [5, 13]: 100; Plant response rating, Mustard, Wild [5, 14]: 100
COCc1nn(-c2ccc(C(F)(F)F)cc2)nc1Oc1cccc(OC(F)(F)F)c1 [Compound 115, 4-(methoxymethyl)-5-[3-(trifluoromethoxy)phenoxy]-2-[4-(trifluoromethyl)phenyl]-2H-1,2,3-triazole] |  | 80 |  |  |  |  |  |  |  |  |  |  |  |  |  |  |  |  |  |  | pest or weed control at 125 g/ha [1, 6]: 75%; pest or weed control at 62 g/ha ([1]; Flood): 70%
FCc1nn(-c2ccc(C(F)(F)F)cc2)nc1Oc1cccc(OC(F)(F)F)c1 [Compound 116, 4-(fluoromethyl)-5-[3-(trifluoromethoxy)phenoxy]-2-[4-(trifluoromethyl)phenyl]-2H-1,2,3-triazole] |  | 85 |  |  |  |  |  |  |  |  |  |  |  |  |  |  |  |  |  |  | pest or weed control at 125 g/ha [1, 6]: 75%; pest or weed control at 62 g/ha ([1]; Flood): 60%
COc1nn(-c2ccc(C(F)(F)F)cc2)nc1Cc1ccnc(C(F)F)c1 [Compound 138] |  |  | 30 | 50 | 70 | 85 |  |  |  | 50 | 70 | 80 | 85 |  | 25 | 35 | 40 | 90 | 95 | 100 | Plant response rating, Bluegrass [2, 15]: 20; Plant response rating, Blackgrass [3, 15]: 30; Plant response rating: Ryegrass, Italian [4, 10]: 50; Plant response rating, Ryegrass, Italian [4, 15]: 10; Plant response rating: Mustard, Wild [5, 10]: 100; Plant response rating, Mustard, Wild [5, 15]: 75
Cc1nn(-c2ccc(F)c(C(F)(F)F)c2)nc1Cc1ccnc(C(F)(F)F)c1 [Compound 156] |  |  | 65 | 70 | 80 |  | 5 | 40 | 100 | 15 | 35 | 60 |  | 5 | 15 | 10 | 25 | 95 | 100 | 100 | Plant response rating, Bluegrass [2, 15]: 15; Plant response rating, Bluegrass [2, 16]: 5; Plant response rating, Blackgrass [3, 15]: 10; Plant response rating, Blackgrass [3, 16]: 0; Plant response rating, Blackgrass [3, 12]: 15; Plant response rating, Blackgrass [3, 13]: 70; Plant response rating, Ryegrass, Italian [4, 15]: 5; Plant response rating, Ryegrass, Italian [4, 16]: 0; Plant response rating, Ryegrass, Italian [4, 11]: 5; Plant response rating, Ryegrass, Italian [4, 12]: 5; Plant response rating, Ryegrass, Italian [4, 13]: 60; Plant response rating, Mustard, Wild [5, 15]: 100; Plant response rating, Mustard, Wild [5, 16]: 10; Plant response rating, Mustard, Wild [5, 11]: 85; Plant response rating, Mustard, Wild [5, 12]: 95; Plant response rating, Mustard, Wild [5, 13]: 100
